Measurements published in US12208130B2, “Treatment of women affected with polycystic ovary syndrome” (INSTITUT NATIONAL DE LA SANTE ET DE LA RECHERCHE MEDICALE …, priority 2017, dated 2025).
Where a SMILES comes first, the peptide text is derived from it. [ ]: non-standard residue; d: D form. dPhe(4-Cl) = N[C@H](Cc1ccc(Cl)cc1)C(=O)O; d2Nal = N[C@H](Cc1ccc2ccccc2c1)C(=O)O; dCit = NC(=O)NCCC[C@@H](N)C(=O)O; d3Pal = N[C@H](Cc1cccnc1)C(=O)O

What was measured:
pregnant mice = assay: LH, T, E2 and P measurement in pregnant mice at E19.5; assay type: in vivo, mouse
Description: PAMH+GnRH antag. (FIG. 3D) Schematic representation of tail-tip blood sampling in adult diestrus female mice (3-4 months old). (FIG. 3E) Tail blood was collected every 10 min for 2 h and LH measured from 10 a.m-12 p.m in adult (P60) diestrus females (Control, n=8; PAMH, n=10; PAMH+GnRH antag, n=9; One-way ANOVA and Tukey's multiple comparison post hoc test, F(2,24)=57.06, *P<0.05, ***P<0.0001). Bars from left to right: Control, PAMH, PAMH+GnRH antag. (FIGS. 2F-1, 2F-2, 2F-3) Representative graphs for LH pulsatility over 2-hr in one female adult (P60) mouse of each treatment. Asterisks in (FIG. 3F) indicate the number of LH pulses/2-hr. (FIG. 3G) Mean circulating testosterone and LH levels were analyzed in pregnant PBS-treated (n=4) and AMH-treated (n=4) dams at embryonic day (E) 19.5 of gestation. […] Values are expressed as relative to the mean of each treatment. All values are expressed as mean±s.e.m. […]
For the analysis of circulating LH and T levels, animals were decapitated and trunk blood from adult (P60) animals and P0 pups (1-2 hrs after birth) were collected in sterile Eppendorf tubes and left on ice until centrifugation. […] LH levels were determined by a sandwich ELISA, as described previously (Vidal et al., 2012, PloS one, Vol. 7: e39001), using the mouse LH-RP reference provided by A. F. Parlow (National Hormone and Pituitary Program, Torrance, CA). […]

P0 pups = assay: LH and T measurement in P0 mice; assay type: in vivo, mouse; details: prenatal GnRH antagonist administration with AMH
Description: FIGS. 4A-4C-2. Prenatal AMH treatment increases perinatal T levels in females and masculinizes their brain. (FIG. 4A) Plasma T and LH levels were measured in pups 2 hours after birth (males, n=5; control females, n=5; PAMH females, n=4; PAMH females+GnRH antag, n=6). (FIG. 4B) TH immunoreactive (-ir) neurons in the AVPV were quantified in these animal groups (n=3 per sex and treatment). The number of AVPV TH-ir neurons are represented as the mean±s.e.m. (One-way ANOVA and Tukey's multiple comparisons post-hoc test, F(2,6)=231.1, ***P<0.0001). In FIG. 4B: left bar: male; middle bar: control female; right bar: PAMH female. (FIGS. 4C-1, 4C-2)
For the analysis of circulating LH and T levels, animals were decapitated and trunk blood from adult (P60) animals and P0 pups (1-2 hrs after birth) were collected in sterile Eppendorf tubes and left on ice until centrifugation. Plasma was collected and stored at −80° C. until use. LH levels were determined by a sandwich ELISA, as described previously (Vidal et al., 2012, PloS one, Vol. 7: e39001), using the mouse LH-RP reference provided by A. F. Parlow (National Hormone and Pituitary Program, Torrance, CA). Plasma T levels were analyzed using a commercial ELISA (Demeditec Diagnostics, GmnH, DEV9911) (Moore et al., 2015, Proc Natl Acad Sci USA, Vol. 112: 596-601) according to the manufacturers' instructions. […]

In the case of `CC(=O)N[C@H](Cc1ccc2ccccc2c1)C(=O)N[C@H](Cc1ccc(Cl)cc1)C(=O)N[C@H](Cc1cccnc1)C(=O)N[C@@H](CO)C(=O)N[C@@H](Cc1ccc(O)cc1)C(=O)N[C@H](CCCNC(N)=O)C(=O)N[C@@H](CC(C)C)C(=O)N[C@@H](CCCNC(=N)N)C(=O)N1CCC[C@H]1C(=O)N[C@H](C)C(N)=O` [Cetrorelix acetate, Ac-D-2Nal-D-Phe(4-Cl)-D-3Pal-Ser-Tyr-D-Cit-Leu-Arg-Pro-D-Ala-NH2] (Ac-[d2Nal][dPhe(4-Cl)][d3Pal]SY[dCit]LRP[dA]-NH2), the “circulating T in dams” value (pregnant mice; dams i.p. AMH + GnRH antag E16.5-E18.5) is reported as “very low T levels”, the “AMH-induced increase of LH in pregnant mice” value (pregnant mice; dams i.p. AMH + GnRH antagonist E16.5-E18.5) is reported as “prevented” and the “neonatal T and LH surges of PAMH female pups” value (P0 pups) is reported as “corrected”.
